Laboratory results reported in PubChem BioAssay (NCI).
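Interpolation was linear, between the two tested concentrations surrounding the appropriate level; five concentrations were tested over 48 hours in 96-well plates. Definition used: TGI = concentration required for complete inhibition of growth.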

How the values were obtained:
Experiment in all cases: NCI-60 cell line screen, 48 h
SK-MEL-2 melanoma = tested on: SK-MEL-2 melanoma
HS 578T breast = tested on: HS 578T breast
OVCAR-3 ovarian = tested on: OVCAR-3 ovarian
TK-10 renal = tested on: TK-10 renal
MDA-MB-231 breast = tested on: MDA-MB-231 breast
SNB-19 CNS = tested on: SNB-19 CNS
CCRF-CEM leukemia = tested on: CCRF-CEM leukemia
NCI-H522 lung = tested on: NCI-H522 lung
OVCAR-5 ovarian = tested on: OVCAR-5 ovarian
M14 melanoma = tested on: M14 melanoma
KM12 colon = tested on: KM12 colon
SNB-75 CNS = tested on: SNB-75 CNS
OVCAR-8 ovarian = tested on: OVCAR-8 ovarian
K-562 leukemia = tested on: K-562 leukemia
U251 CNS = tested on: U251 CNS
DLD-1 colon = tested on: DLD-1 colon
COLO 205 colon = tested on: COLO 205 colon
UACC-257 melanoma = tested on: UACC-257 melanoma
SR leukemia = tested on: SR leukemia
SK-OV-3 ovarian = tested on: SK-OV-3 ovarian
HCT-15 colon = tested on: HCT-15 colon
HT29 colon = tested on: HT29 colon
NCI-H23 lung = tested on: NCI-H23 lung
SN12C renal = tested on: SN12C renal
MDA-MB-435 = tested on: MDA-MB-435
HCC-2998 colon = tested on: HCC-2998 colon
NCI-H226 lung = tested on: NCI-H226 lung
HOP-92 NSCLC = tested on: HOP-92 NSCLC
MOLT-4 leukemia = tested on: MOLT-4 leukemia
EKVX NSCLC = tested on: EKVX NSCLC
SK-MEL-28 melanoma = tested on: SK-MEL-28 melanoma
DU-145 prostate = tested on: DU-145 prostate
A549 NSCLC = tested on: A549 NSCLC
OVCAR-4 ovarian = tested on: OVCAR-4 ovarian
SF-295 CNS = tested on: SF-295 CNS
CAKI-1 renal = tested on: CAKI-1 renal
MALME-3M melanoma = tested on: MALME-3M melanoma
RPMI-8226 leukemia = tested on: RPMI-8226 leukemia
HCT-116 colon = tested on: HCT-116 colon
KM20L2 colon = tested on: KM20L2 colon
A498 renal = tested on: A498 renal
LXFL 529 NSCLC = tested on: LXFL 529 NSCLC
DMS 273 small cell lung = tested on: DMS 273 small cell lung
MCF7 breast = tested on: MCF7 breast
ACHN renal = tested on: ACHN renal
RXF-631 renal = tested on: RXF-631 renal
SNB-78 CNS = tested on: SNB-78 CNS
PC-3 prostate = tested on: PC-3 prostate
SW-620 colon = tested on: SW-620 colon
SK-MEL-5 melanoma = tested on: SK-MEL-5 melanoma
XF 498 CNS = tested on: XF 498 CNS
UO-31 renal = tested on: UO-31 renal
MDA-N = tested on: MDA-N
HOP-18 NSCLC = tested on: HOP-18 NSCLC
NCI-H460 lung = tested on: NCI-H460 lung
DMS 114 small cell lung = tested on: DMS 114 small cell lung
RXF 393 renal = tested on: RXF 393 renal
IGROV1 ovarian = tested on: IGROV1 ovarian
LOX IMVI melanoma = tested on: LOX IMVI melanoma
HOP-62 NSCLC = tested on: HOP-62 NSCLC
T-47D breast = tested on: T-47D breast
786-0 renal = tested on: 786-0 renal
M19-MEL melanoma = tested on: M19-MEL melanoma
BT-549 breast = tested on: BT-549 breast
UACC-62 melanoma = tested on: UACC-62 melanoma
NCI/ADR-RES ovarian = tested on: NCI/ADR-RES ovarian
HL-60(TB) leukemia = tested on: HL-60(TB) leukemia
SF-268 CNS = tested on: SF-268 CNS
SF-539 CNS = tested on: SF-539 CNS

CCN(CC)CCNc1ccc2nnn3c4ccc([N+](=O)[O-])cc4c(=O)c1c23
TGI (SK-MEL-2 melanoma): > 71.7 µM
TGI (HS 578T breast): 73.8 µM
TGI (OVCAR-3 ovarian): > 100 µM
TGI (TK-10 renal): > 45 µM
TGI (MDA-MB-231 breast): 24.4 µM
TGI (SNB-19 CNS): > 100 µM
TGI (CCRF-CEM leukemia): 44.3 µM
TGI (NCI-H522 lung): > 100 µM
TGI (OVCAR-5 ovarian): 65.1 µM
TGI (M14 melanoma): 49.7 µM
TGI (KM12 colon): > 100 µM
TGI (SNB-75 CNS): 42 µM
TGI (OVCAR-8 ovarian): 16 µM
TGI (K-562 leukemia): 32.8 µM
TGI (U251 CNS): 13 µM
TGI (DLD-1 colon): > 70.1 µM
TGI (COLO 205 colon): > 100 µM
TGI (UACC-257 melanoma): > 69.4 µM
TGI (SR leukemia): > 33.6 µM
TGI (SK-OV-3 ovarian): > 100 µM
TGI (HCT-15 colon): > 61 µM
TGI (HT29 colon): > 55.5 µM
TGI (NCI-H23 lung): 98.5 µM
TGI (SN12C renal): > 83.6 µM
TGI (MDA-MB-435): > 100 µM
TGI (HCC-2998 colon): > 100 µM
TGI (NCI-H226 lung): 17 µM
TGI (HOP-92 NSCLC): 40.6 µM
TGI (MOLT-4 leukemia): 32 µM
TGI (EKVX NSCLC): > 89.7 µM
TGI (SK-MEL-28 melanoma): 51.1 µM
TGI (DU-145 prostate): > 100 µM
TGI (A549 NSCLC): > 53.2 µM
TGI (OVCAR-4 ovarian): 48.9 µM
TGI (SF-295 CNS): > 78.4 µM
TGI (CAKI-1 renal): 27.3 µM
TGI (MALME-3M melanoma): 62.9 µM
TGI (RPMI-8226 leukemia): 43.1 µM
TGI (HCT-116 colon): 19.7 µM
TGI (KM20L2 colon): > 100 µM
TGI (A498 renal): 23.8 µM
TGI (LXFL 529 NSCLC): > 96.1 µM
TGI (DMS 273 small cell lung): 23.5 µM
TGI (MCF7 breast): > 100 µM
TGI (ACHN renal): 55.9 µM
TGI (RXF-631 renal): 28.2 µM
TGI (SNB-78 CNS): 63.8 µM
TGI (PC-3 prostate): > 100 µM
TGI (SW-620 colon): 27.6 µM
TGI (SK-MEL-5 melanoma): 58.7 µM
TGI (XF 498 CNS): 18.3 µM
TGI (UO-31 renal): 25 µM
TGI (MDA-N): > 100 µM
TGI (HOP-18 NSCLC): > 100 µM
TGI (NCI-H460 lung): > 26.9 µM
TGI (DMS 114 small cell lung): 97.3 µM
TGI (RXF 393 renal): 18.9 µM
TGI (IGROV1 ovarian): > 100 µM
TGI (LOX IMVI melanoma): 17.9 µM
TGI (HOP-62 NSCLC): > 71.3 µM
TGI (T-47D breast): > 100 µM
TGI (786-0 renal): 18.5 µM
TGI (M19-MEL melanoma): > 100 µM
TGI (BT-549 breast): > 100 µM
TGI (UACC-62 melanoma): > 100 µM
TGI (NCI/ADR-RES ovarian): 30.7 µM
TGI (HL-60(TB) leukemia): 30.2 µM
TGI (SF-268 CNS): > 100 µM
TGI (SF-539 CNS): 14.9 µM

O=C(CC1(O)C(=O)Nc2c(Cl)ccc(Cl)c21)c1ccco1 (configuration not stated)
TGI (SK-MEL-2 melanoma): > 69.2 µM
TGI (HS 578T breast): 71.5 µM
TGI (OVCAR-3 ovarian): 18.7 µM
TGI (TK-10 renal): > 81.6 µM
TGI (MDA-MB-231 breast): 48.7 µM
TGI (SNB-19 CNS): > 100 µM
TGI (CCRF-CEM leukemia): 26.9 µM
TGI (NCI-H522 lung): > 100 µM
TGI (OVCAR-5 ovarian): 38.7 µM
TGI (M14 melanoma): 27.8 µM
TGI (KM12 colon): > 78.3 µM
TGI (SNB-75 CNS): 71.7 µM
TGI (OVCAR-8 ovarian): > 73.8 µM
TGI (U251 CNS): > 74.4 µM
TGI (DLD-1 colon): > 100 µM
TGI (COLO 205 colon): 33 µM
TGI (UACC-257 melanoma): 40.1 µM
TGI (SR leukemia): 14.8 µM
TGI (SK-OV-3 ovarian): > 74.3 µM
TGI (HCT-15 colon): > 70.2 µM
TGI (HT29 colon): > 93.4 µM
TGI (NCI-H23 lung): 34 µM
TGI (SN12C renal): 31.8 µM
TGI (MDA-MB-435): 3.44 µM
TGI (HCC-2998 colon): > 88.5 µM
TGI (NCI-H226 lung): 47.5 µM
TGI (HOP-92 NSCLC): 49.8 µM
TGI (MOLT-4 leukemia): 61 µM
TGI (EKVX NSCLC): 50.5 µM
TGI (SK-MEL-28 melanoma): 38.2 µM
TGI (DU-145 prostate): > 100 µM
TGI (A549 NSCLC): 49.9 µM
TGI (OVCAR-4 ovarian): 24.5 µM
TGI (SF-295 CNS): 40.9 µM
TGI (CAKI-1 renal): > 72.3 µM
TGI (MALME-3M melanoma): 34.7 µM
TGI (RPMI-8226 leukemia): 40.8 µM
TGI (HCT-116 colon): 32.4 µM
TGI (KM20L2 colon): > 100 µM
TGI (A498 renal): 64 µM
TGI (LXFL 529 NSCLC): 27.4 µM
TGI (DMS 273 small cell lung): > 100 µM
TGI (MCF7 breast): 39.5 µM
TGI (ACHN renal): 38.6 µM
TGI (RXF-631 renal): 65.3 µM
TGI (SNB-78 CNS): > 100 µM
TGI (PC-3 prostate): > 100 µM
TGI (SW-620 colon): 56.4 µM
TGI (SK-MEL-5 melanoma): 31.7 µM
TGI (XF 498 CNS): 24.2 µM
TGI (UO-31 renal): 54.9 µM
TGI (MDA-N): 12.8 µM
TGI (HOP-18 NSCLC): > 100 µM
TGI (NCI-H460 lung): 45.6 µM
TGI (DMS 114 small cell lung): 33.5 µM
TGI (RXF 393 renal): 43.2 µM
TGI (IGROV1 ovarian): 40 µM
TGI (LOX IMVI melanoma): 29.4 µM
TGI (HOP-62 NSCLC): 66.2 µM
TGI (T-47D breast): 72.9 µM
TGI (786-0 renal): 46.8 µM
TGI (M19-MEL melanoma): 5.33 µM
TGI (BT-549 breast): > 100 µM
TGI (UACC-62 melanoma): 19.3 µM
TGI (NCI/ADR-RES ovarian): 74.1 µM
TGI (HL-60(TB) leukemia): 35.1 µM
TGI (SF-268 CNS): > 84.2 µM
TGI (SF-539 CNS): 59.7 µM
